For data set [1] the following is noted: statement in abstract; no data in this paper; cited from earlier work.
A further data set relates to three types of cells. The conditions noted are these: cited from earlier work.
The test system of a further data set is HeLa cells. The conditions noted are these: 100 nM nocodazole 16 h, 10 μM, 40 min; in contrast to interphase cells.

For “5(6)-Carboxyfluorescein-R.I.-CKTat9 [Flu-R.I.-CKTat9]”, the “cell surface-bound amount at 0 °C in KPBS versus PBS” value in the data set on HeLa cell surface was “no difference”.

With “Acetyl-dC-dK-dR-dR-dR-dQ-dR-dR-dK-dK-dR-CONH2 [R.I.-CKTat9]”, the proteolytic stability result in data set [1] was “proteolytically stable”.

With polyarginine, the “reduction of cell-associated fluorescence by high potassium buffer” value with three types of cells is given as “more than 90%”.

As for rhodamine-R.I.-CKTat9 [Rho-R.I.-CKTat9], the “uptake by HeLa cells arrested in M phase (microscopy)” value with HeLa cells is “did not take up”.

Values taken from PMC2859821 (Molecular pharmaceutics, 2009).
